Experimental data published in PubChem BioAssay (NCI).
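Briefly, cells in 96-well plates were exposed to five compound concentrations for 48 h, and endpoints were estimated by linear interpolation. GI50 = concentration required for 50% inhibition of growth. TGI is the concentration that stops growth completely.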

Tests used:
Experiment in all cases: growth of human tumour cells (NCI), 48 h
[1] = system: NCI-H23 lung
[2] = system: MOLT-4 leukemia
[3] = system: SF-295 CNS
[4] = system: CCRF-CEM leukemia
[5] = system: HCC-2998 colon
[6] = system: UACC-62 melanoma
[7] = system: OVCAR-3 ovarian
[8] = system: NCI-H460 lung
[9] = system: HS 578T breast
[10] = system: IGROV1 ovarian

For `COc1cc(Nc2nc(N[C@H]3CCCC[C@@H]3N)nc3cc[nH]c(=O)c23)cc(OC)c1`, the GI50 [1] was 1.48 µM, the TGI [1] was 15.8 µM and the GI50 [2] was 1.19 µM. It also gave a TGI [2] of 11.4 µM, a GI50 [3] of 1.5 µM and a TGI [3] of 4.46 µM. The GI50 [4] was 1.39 µM, the TGI [4] was 11.8 µM and the GI50 [5] was 1.7 µM. For the same compound, the TGI [5] was 11.5 µM, the GI50 [6] was 0.844 µM and the TGI [6] was 19.1 µM. It also gave a GI50 [7] of 8.71 µM, a TGI [7] of 21.8 µM and a GI50 [8] of 1.28 µM. For the same compound, the TGI [8] was 4.21 µM, the GI50 [9] was 1.14 µM and the TGI [9] was 15.2 µM.

With `CC1OC2CC(=O)OC2C2=C1C(=O)c1c(O)c3c(c(O)c1C2=O)C1CC(O)C3(O)C(C)O1` (configuration not stated) the GI50 [1] was 0.414 µM, the TGI [1] was 1.55 µM and the GI50 [2] was 0.244 µM. It also gave a TGI [2] of 0.64 µM, a GI50 [3] of 0.975 µM and a TGI [3] of 3.29 µM. The GI50 [4] was 0.26 µM, the TGI [4] was 13.6 µM and the GI50 [5] was 0.442 µM. It also gave a TGI [5] of 1.67 µM, a GI50 [6] of 0.734 µM and a TGI [6] of 2.13 µM. For the same compound, the GI50 [7] was 0.207 µM, the TGI [7] was 0.629 µM and the GI50 [10] was 0.329 µM. For the same compound, the TGI [10] was 1.7 µM, the GI50 [8] was 0.784 µM and the TGI [8] was 3.14 µM. The GI50 [9] was 0.429 µM and the TGI [9] was 2.92 µM.

`CC1C(=O)C(C)C(c2ccccc2)N(N=O)C1c1ccccc1` (configuration not stated) was tested, and the GI50 [1] was 332 µM, the TGI [1] was > 779 µM and the TGI [2] was > 1000 µM. For the same compound, the GI50 [3] was 181 µM, the TGI [3] was 498 µM and the TGI [4] was > 1000 µM. The GI50 [5] was > 1000 µM, the TGI [5] was > 1000 µM and the TGI [6] was > 655 µM. The TGI [7] was 685 µM, the GI50 [10] was 216 µM and the TGI [10] was > 673 µM. The TGI [8] was > 1000 µM, the GI50 [9] was 28.6 µM and the TGI [9] was 186 µM.

For `O=NNc1nc(-c2cccnc2)nc2ccccc12`, the TGI [1] was > 100 µM, the TGI [2] was > 100 µM and the TGI [3] was > 100 µM. The TGI [4] was > 100 µM, the TGI [5] was > 100 µM and the TGI [6] was > 100 µM. For the same compound, the TGI [7] was > 100 µM, the TGI [10] was > 100 µM and the TGI [8] was > 100 µM. The TGI [9] was > 100 µM.

For `C[C@@H]1CN(CC(=O)N2CC(C)(C)c3nc(CO)c(Cc4ccc(F)cc4)cc32)[C@@H](CN2CCOC[C@H]2C)CN1`, the GI50 [1] was 51.8 µM, the TGI [1] was > 100 µM and the GI50 [2] was 24.4 µM. For the same compound, the TGI [2] was 77.9 µM, the GI50 [3] was 61.6 µM and the TGI [3] was > 100 µM. For the same compound, the GI50 [4] was 31.3 µM, the TGI [4] was > 100 µM and the GI50 [5] was 17.1 µM. For the same compound, the TGI [5] was 32.4 µM, the GI50 [6] was 23.6 µM and the TGI [6] was 65.8 µM. For the same compound, the GI50 [7] was > 100 µM, the TGI [7] was > 100 µM and the GI50 [10] was > 100 µM. The TGI [10] was > 100 µM, the GI50 [8] was 45.9 µM and the TGI [8] was > 100 µM. The GI50 [9] was 25 µM and the TGI [9] was > 100 µM.

`Fc1cccc(COc2ccc(Nc3ncnc4cc(-c5ccc[nH]5)sc34)cc2Cl)c1` was tested, and the GI50 [1] was 7.22 µM, the TGI [1] was > 25 µM and the GI50 [2] was 2.59 µM. For the same compound, the TGI [2] was > 25 µM, the GI50 [3] was 0.548 µM and the TGI [3] was > 19.9 µM. The GI50 [4] was 0.44 µM, the TGI [4] was > 25 µM and the GI50 [5] was 0.246 µM. The TGI [5] was 19.2 µM, the GI50 [6] was 5.77 µM and the TGI [6] was > 22.8 µM. The GI50 [7] was 0.151 µM, the TGI [7] was 2.99 µM and the GI50 [10] was 0.406 µM. For the same compound, the TGI [10] was 11.7 µM, the GI50 [8] was 2.09 µM and the TGI [8] was > 15.3 µM. It also gave a GI50 [9] of 4.53 µM and a TGI [9] of 21.2 µM.

Work on `O=C1C(Cl)=C(Nc2cccc(O)c2)C(=O)N1c1cc(Cl)c(Cl)cc1Cl` yielded a GI50 [1] of 22.3 µM, a TGI [1] of 48.3 µM and a GI50 [2] of 12.7 µM. The TGI [2] was 37.2 µM, the GI50 [3] was 20.6 µM and the TGI [3] was 53.2 µM. For the same compound, the GI50 [4] was 0.45 µM, the TGI [4] was > 100 µM and the GI50 [5] was 19.1 µM. The TGI [5] was 34.8 µM, the GI50 [6] was 17.2 µM and the TGI [6] was 32.5 µM. The GI50 [7] was 15.9 µM, the TGI [7] was 36.1 µM and the GI50 [10] was 8.87 µM. For the same compound, the TGI [10] was 21.2 µM, the GI50 [8] was 18 µM and the TGI [8] was 38.4 µM. For the same compound, the GI50 [9] was 17.6 µM and the TGI [9] was 39.4 µM.

Compound `COc1ccc(-c2cn(-c3ccccc3)c(-c3ccccc3)n2)cc1OC` has a GI50 [1] of 5.51 µM, a TGI [1] of 25 µM and a GI50 [2] of 2.96 µM. It also gave a TGI [2] of 10.9 µM, a GI50 [3] of 3.5 µM and a TGI [3] of 17.1 µM. It also gave a GI50 [4] of 2.16 µM, a TGI [4] of 5.98 µM and a GI50 [5] of 6.39 µM. It also gave a TGI [5] of 20.7 µM, a GI50 [6] of 10.4 µM and a TGI [6] of 22.6 µM. The GI50 [7] was 2.2 µM, the TGI [7] was 5.07 µM and the GI50 [10] was 2.72 µM. The TGI [10] was 9.3 µM, the GI50 [8] was 3.57 µM and the TGI [8] was 14.9 µM. The GI50 [9] was 5.68 µM and the TGI [9] was > 100 µM.

`COc1ccc2c3c(c(=O)n(C)c2c1OC)C=CC(C)(C)O3` was tested, and the TGI [1] was 84.9 µM, the TGI [2] was 54.7 µM and the TGI [3] was > 100 µM. For the same compound, the TGI [4] was 88.3 µM, the TGI [5] was > 100 µM and the TGI [6] was > 100 µM. For the same compound, the TGI [7] was > 100 µM, the TGI [10] was > 100 µM and the TGI [9] was 78.4 µM.

For `O=C(CCl)N1c2ccccc2Sc2c1ccc1ccccc21`, the GI50 [1] was 2.2 µM, the TGI [1] was 5.11 µM and the GI50 [2] was 2.49 µM. For the same compound, the TGI [2] was > 100 µM, the GI50 [3] was 2.38 µM and the TGI [3] was 6.53 µM. It also gave a GI50 [4] of 0.696 µM, a TGI [4] of 36.6 µM and a GI50 [5] of 2.02 µM. For the same compound, the TGI [5] was 3.59 µM, the GI50 [6] was 2.07 µM and the TGI [6] was 4.9 µM. For the same compound, the GI50 [7] was 1.86 µM, the TGI [7] was 3.26 µM and the GI50 [8] was 2.11 µM. For the same compound, the TGI [8] was 4.34 µM, the GI50 [9] was 4.17 µM and the TGI [9] was 43.9 µM.

For `CN(C)CCOc1ccc2c(c1)C/C(=C/c1ncc([N+](=O)[O-])n1C)C2=O`, the TGI [1] was 4.94 µM, the TGI [2] was > 22.6 µM and the TGI [3] was 20.3 µM. For the same compound, the TGI [4] was 15.1 µM, the TGI [6] was 4.97 µM and the TGI [7] was 6.27 µM. The TGI [10] was 1.49 µM, the TGI [8] was 4.05 µM and the TGI [9] was > 49.6 µM.

Work on `CCc1cc(O)c(Cl)c(C)c1Cl` yielded a TGI [1] of 36.9 µM, a TGI [3] of 42.5 µM and a TGI [4] of 50.1 µM. For the same compound, the TGI [5] was 32.7 µM, the TGI [6] was 35.1 µM and the TGI [7] was 33.5 µM. The TGI [10] was 33.8 µM, the TGI [8] was 33.7 µM and the TGI [9] was 67.7 µM.

In the case of `CC(C)NC(=O)OCCS(=O)c1c(Cl)c(Cl)nn1C` (configuration not stated), the TGI [1] is reported as > 100 µM, the TGI [2] is reported as > 100 µM and the TGI [3] is reported as > 100 µM. The TGI [4] was > 100 µM, the TGI [6] was 67.7 µM and the TGI [7] was > 100 µM. The TGI [10] was > 100 µM, the TGI [8] was > 100 µM and the TGI [9] was > 100 µM.
